Consider 22 molecules from US8558011B2, “Cold menthol receptor-1 antagonists” (Janssen Pharmaceutica, NV, priority 2010, dated 2013).

By IC50 is commonly meant the concentration that gives 50% inhibition. Low readings indicate greater potency, high ones weaker potency.

In the assay the target is T1, canine TRPM8 (Canis lupus familiaris, UniProt Q1A7N1).
T1 construct: expressed in transfected cells
Description: In Vitro Canine TRPM8 Functional Assay (Ca2+-sensitive fluorescent dye, icilin activation, FLIPR/FDSS). Type of assay: cell-based. To be noted: HEK293 cells stably expressing canine TRPM8, icilin activation; for IC50: eight-point dose-response; for % I (0.5 μM): compound at 0.5 μM; for % I (1 μM): compound at 1 μM. As to the method: The functional activity of compounds of Formula (I) was determined by measuring changes in intracellular calcium concentration using a Ca^2+-sensitive fluorescent dye. The changes in fluorescent signal were monitored by a fluorescence plate reader, either a FLIPR™ (Molecular Devices) or FDSS (Hamamatsu).
HEK293 cells stably expressing canine TRPM8 were routinely grown as monolayers in Dulbecco's minimum essential medium supplemented with 10% FBS, 1 mM L-glutamine, 100 units/mL penicillin, 100 ug/mL streptomycin and 400 μg/mL G418. Cells were maintained in 5% CO2 at 37° C. At 24 hrs prior to assay, cells were seeded in clear-base poly-D-lysine coated 384-well plates (BD Biosciences, NJ, USA) at a density of 5,000 cells per well in culture medium and grown overnight in 5% CO2 at 37° C. On assay day, growth media was removed and cells were loaded with Calcium 3 Dye (Molecular Devices) for 35 min at 37° C., under 5% CO2 and then for 25 min at room temperature and atmosphere. Subsequently, cells were tested for agonist-induced increases in intracellular Ca^2+ levels using FLIPR™ or FDSS. Cells were challenged with a compound of Formula (I) (at varying concentrations) and intracellular Ca^2+ was measured for 5 min prior to the addition of icilin to all wells to achieve a final concentration which produces approximately an 80% maximal response.
Basal FI was subtracted prior to normalizing data to percent of maximal response. Curves were generated using the average of quadruplicate wells for each data point, were analyzed using nonlinear regression of either sigmoidal dose response or sigmoidal dose response (variable slope). Finally, the EC50 and IC50 values were calculated with the best-fit dose curve determined by GraphPad Prism.

Where “and” joins values, the source holds several entries; their conditions need not be identical. Equal entries are not always repeated.

T1 sequence (Q1A7N1 1-1104): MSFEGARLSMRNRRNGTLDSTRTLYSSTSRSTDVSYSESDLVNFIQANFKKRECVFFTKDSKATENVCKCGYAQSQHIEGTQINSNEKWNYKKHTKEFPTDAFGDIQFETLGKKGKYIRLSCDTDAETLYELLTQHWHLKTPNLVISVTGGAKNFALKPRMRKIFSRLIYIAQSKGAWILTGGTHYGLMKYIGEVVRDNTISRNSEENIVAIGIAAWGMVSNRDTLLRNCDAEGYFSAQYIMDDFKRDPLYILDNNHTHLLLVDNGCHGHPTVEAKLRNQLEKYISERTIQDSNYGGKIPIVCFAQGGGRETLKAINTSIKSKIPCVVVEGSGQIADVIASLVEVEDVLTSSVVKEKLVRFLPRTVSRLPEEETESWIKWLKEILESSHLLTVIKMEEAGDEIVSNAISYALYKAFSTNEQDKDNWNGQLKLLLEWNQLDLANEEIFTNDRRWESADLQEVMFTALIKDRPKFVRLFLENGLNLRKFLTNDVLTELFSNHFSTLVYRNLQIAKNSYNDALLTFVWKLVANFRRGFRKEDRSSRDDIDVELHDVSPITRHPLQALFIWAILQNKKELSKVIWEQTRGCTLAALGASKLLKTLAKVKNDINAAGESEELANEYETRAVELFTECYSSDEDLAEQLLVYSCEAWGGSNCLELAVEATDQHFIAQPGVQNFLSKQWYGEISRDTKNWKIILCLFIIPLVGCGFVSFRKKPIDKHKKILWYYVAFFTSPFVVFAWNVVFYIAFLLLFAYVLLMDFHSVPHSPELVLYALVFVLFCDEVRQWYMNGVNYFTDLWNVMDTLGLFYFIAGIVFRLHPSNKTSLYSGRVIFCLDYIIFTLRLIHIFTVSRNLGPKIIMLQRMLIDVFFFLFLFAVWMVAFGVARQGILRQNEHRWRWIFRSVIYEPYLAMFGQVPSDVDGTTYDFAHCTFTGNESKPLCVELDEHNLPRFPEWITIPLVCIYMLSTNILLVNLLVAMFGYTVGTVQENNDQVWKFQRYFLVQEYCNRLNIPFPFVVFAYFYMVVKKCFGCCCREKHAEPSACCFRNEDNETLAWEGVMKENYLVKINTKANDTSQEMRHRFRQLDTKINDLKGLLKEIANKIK

With `CCOP(=O)(OCC)C(Cc1ccc(F)c(F)c1)c1sc2ccccc2c1-c1cccc(C(N)=O)c1` (stereo not shown) [Cpd 218], the IC50 stood at 483 nM and the “% I (0.5 μM)” value is on record as 79%.

With `CCOP(=O)(OCC)C(Cc1cccc(Cl)c1Cl)c1sc2ccccc2c1C` (racemic) [Cpd 35], the IC50 amounted to 125 nM and the “% I (1 μM)” value is reported as 100%.

With `CCOP(=O)(Cc1cc2ccccc2s1)OCc1ccccc1F` (stereo not shown) [Cpd 109, Benzo[b]thiophen-2-ylmethyl-phosphonic acid ethyl ester 2-fluoro-benzyl ester], the “% I (1 μM)” value is given as 17%.

With `CCOP(=O)(OCC)C(Cc1ccc(F)cc1)c1sc2ccccc2c1Cl` (stereo not shown) [Cpd 284], the IC50 is 79 nM and 65 nM; the “% I (0.5 μM)” value was 103% and 102%.

With `CCOP(=O)(OCC)C(Cc1cc(OC)c(Cl)cc1F)c1sc2ccccc2c1Br` (stereo not shown) [Cpd 164], inhibition was half-maximal at 82 nM (IC50) and the “% I (0.5 μM)” value was found to be 94%.

Turning to `CC(C)OP(=O)(OC(C)C)C(Cc1cc(Cl)ccc1F)c1sc2ccccc2c1Br` (stereo not shown) [Cpd 308], it took 17 nM to reach half-maximal inhibition (IC50) and the “% I (0.5 μM)” value stood at 103%.

`CC(C)OP(=O)(OC(C)C)C(Cc1cc(F)cc(C(F)(F)F)c1)c1sc2ccccc2c1Cl` (stereo not shown) [Cpd 169]: 96 nM corresponded to half-maximal inhibition (IC50) and the “% I (0.5 μM)” value amounted to 104%.

As for `CCOP(=O)(OCC)C(Cc1cccc(F)c1F)c1sc2ccccc2c1C` (racemic) [Cpd 10], it took 43 nM to reach half-maximal inhibition (IC50) and the “% I (1 μM)” value was 100%.

For `CCC(C)P(=O)(C(C)CC)C(OCc1ccc(F)c(F)c1)c1sc2ccccc2c1Br` (stereo not shown) [Cpd 204], the IC50 worked out at 92 nM and the “% I (1 μM)” value is listed as 100%.

For the molecule `CCOP(=O)(OCC)C(Cc1cccc(C(F)(F)F)c1Cl)c1sc2ccccc2c1Cl` (stereo not shown) [Cpd 280], the midpoint of inhibition, the IC50, lay at 227 nM and the “% I (0.5 μM)” value stood at 101%.

Regarding `CCOP(=O)(OCC)C(Cc1ccc(F)c(C(F)(F)F)c1)c1sc2cccc(F)c2c1Br` (stereo not shown) [Cpd 223], half-maximal inhibition (IC50) was put at 52 nM and the “% I (0.5 μM)” value came out at 102%.

With `CCOP(=O)(OCC)C(Cc1ccc(C(F)(F)F)cc1F)c1sc2ccccc2c1Br` (stereo not shown) [Cpd 150], the IC50 stood at 90 nM and the “% I (0.5 μM)” value is on record as 103%.

With `CCOP(=O)(Cc1cc2ccccc2s1)OCc1ccccc1C` (stereo not shown) [Cpd 104, Benzo[b]thiophen-2-ylmethyl-phosphonic acid ethyl ester 2-methyl-benzyl ester], the “% I (1 μM)” value is reported as 53%.

With `CC(=O)OCCOP(=O)(OCCOC(C)=O)C(Cc1ccc(F)c(F)c1)c1sc2ccccc2c1Br` (stereo not shown) [Cpd 213], 202 nM corresponded to half-maximal inhibition (IC50) and the “% I (0.5 μM)” value turned out to be 100%.

`CCOP(=O)(OCC)C(Cc1cc(O)c(Cl)cc1F)c1sc2ccccc2c1Br` (stereo not shown) [Cpd 231]: half-maximal inhibition (IC50) required 122 nM and the “% I (0.5 μM)” value is recorded as 98%.

On to `CC(C)OP(=O)(OC(C)C)C(Cc1ccc(F)c(C(F)(F)F)c1)c1sc2cccc(F)c2c1Br` (stereo not shown) [Cpd 222], for which the IC50 came to 33 nM and the “% I (0.5 μM)” value was 103%.

As to `CC(C)OP(=O)(OC(C)C)C(Cc1ccc(Cl)c(F)c1)c1sc2ccccc2c1Cl` (stereo not shown) [Cpd 302], the IC50 came out at 79 nM and the “% I (0.5 μM)” value is listed as 103%.

For `CCOP(=O)(OCC)C(Cc1cccc(Br)c1)c1sc2ccccc2c1Br` (stereo not shown) [Cpd 295], the IC50 was 31 nM and 16 nM; the “% I (0.5 μM)” value was 102% and 103%.

As to `CCOP(=O)(OCC)C(Cc1cc(F)cc(F)c1Cl)c1sc2ccccc2c1C` (racemic) [Cpd 28], the IC50 turned out to be 110 nM and the “% I (1 μM)” value stood at 100%.

Regarding `CCOP(=O)(OCC)C(Cc1ccccc1Cl)c1sc2ccccc2c1Br` (stereo not shown) [Cpd 147], the IC50 was 125 nM and the “% I (0.5 μM)” value is given as 103%.

Regarding `CCOP(=O)(OCC)C(Cc1cc(C(F)(F)F)ccc1F)c1sc2ccccc2c1Br` (stereo not shown) [Cpd 146], the IC50 amounted to 100 nM and the “% I (0.5 μM)” value was 103%.

As to `CC(C)OP(=O)(OC(C)C)C(Cc1cccc(Cl)c1)c1sc2ccccc2c1Br` (stereo not shown) [Cpd 166], the IC50 was 18 nM and 14 nM; the “% I (0.5 μM)” value came out at 102%; the “% I (1 μM)” value was 103%.
